Measured values reported in patent US10894036B2, “Use of marizomib for the treatment of central nervous system (CNS) cancers” (Celgene International II Sàrl, priority 2016, dated 2021).
Entries after “also recorded” stand apart in the source; their conditions may differ. Where two headings read alike, the source gives them in different places.

Legend:
[1] = 10 mg/kg dose, Gordon et al., 2001; cited from earlier work
[2] = tested on: WHO Grade IV Malignant Glioma; assay: Phase 1/2 MRZ + BEV and MRZ monotherapy in recurrent G4 MG: tumor response by RANO, PFS, OS; format: in vivo, human; settings: for Best Response NE (2), patients: MRZ monotherapy ITT
Source text: (§1) The drugs were infused on 28-Day Cycles.
Tumor response, including PD activity, progression-free survival (PFS), and overall survival (OS) will be assessed. Tumor response will be assessed by the Investigators using RANO 2010 criteria. The overall confirmed response rate will be presented. The response rate, PFS, and OS will also be tabulated by dose cohorts in Part 1 Phase 1 and for all response-evaluable patients in Part 2 Phase 2 and Part 3 Phase 2. Endpoints of response based on tumor assessments will be calculated for subjects who received at least 3 doses of MRZ and had at least 1 post-dose tumor evaluation.

CNS-MM = assay: Compassionate use of marizomib in CNS-myeloma patients: response (IMWG, CSF, MRI, neurological); format: in vivo, human
Experimental: This example sets forth seven case studies in which CNS-MM (i.e., multiple myeloma with CNS involvement) was treated using marizomib alone or in combination with other agents.
Daratumumab (16 mg/kg weekly×2 months) was added with continued marizomib.
Marizomib was given on compassionate use protocol (see above) at 0.7 mg/m^2 as a 10 min IV infusion on days 1, 8 and 15 along with dexamethasone on a 28 day Cycle.
In July 2016, marizomib was given on compassionate use protocol at 0.8 mg/m^2 as a 10 min IV infusion on days 1, 8 and 15 along with dexamethasone on a 28 day Cycle. Pomalidomide was also given at 4 mg daily on days 1 through days 21.
In August 2016, marizomib was given on compassionate use protocol at 0.7 mg/m^2 as a 10 min IV infusion on days 1, 8 and 15 along with dexamethasone on a 28 day Cycle. Pomalidomide was dosed at 4 mg daily on days 1 through days 21.
The patient was treated with marizomib, oral pomalidomide, and oral dexamethasone.
All patients had systemic disease with CNS involvement.

[3] = Quantitative whole body autoradiography: distribution to brain; format: in vivo, rat; settings: rats
Source text: The definition of marizomib is understood to include marizomib as well as pharmaceutically acceptable salts, prodrugs, solvates, hydrates, tautomers, or isomers thereof. In specific embodiments, the term marizomib refers to Compound 1 or a pharmaceutically acceptable salt thereof. Without wishing to be bound by theory, marizomib is a proteasome inhibitor with unique features compared to other proteasome inhibitors. For example, marizomib inhibits all three catalytic activities of the proteasome and is capable of crossing the blood brain barrier (BBB). […] Radiolabeled marizomib has shown 30% CNS biodistribution compared with blood levels in rats. Marizomib can elicit a significant anti-tumor effect in a rodent model of malignant glioma.

[4] = tested on: chymotrypsin-like (CT-L) proteasome activity; assay: Proteasome inhibition in packed whole blood: CT-L; format: in vivo, human
Source text: as §1
Change in proteasome activities in packed whole blood (PWB) lysates and peripheral blood mononuclear cell (PBMC) lysates, comparing pre-drug and post drug levels on Days 1, 8, and 15 of Cycle 1; Days 1 and 15 of each Cycle thereafter; and at the End-of Treatment Visit.
The laboratory correlates include assessment of the percentage inhibition of proteasome function (evaluated by measurement of CT-L, T-L and C-L activity in blood isolates such as whole blood and PBMC lysates.
PD analysis will include change in proteasome activities (whole blood lysates and PBMC lysates) by comparing pre-drug and post drug levels on Days 1, 8, and 15 (i.e., for each dose) of Cycle 1 and Days 1 and 15 (i.e., for the first and last doses) of each cycle thereafter.

[5] = MRZ + BEV N = 10, MRZ monotherapy N = 7
[6] = MRZ + BEV N = 22, MRZ monotherapy N = 18
[7] = MRZ monotherapy 0.8 mg/m^2, first 15 recurrent glioma patients
[8] = 7 CNS-MM patients, listed as Marizomib
[9] = MRZ 0.7 mg/m^2, C1D8 (17 May 2016)
[10] = MRZ 0.8 mg/m^2, C1D8 (17 May 2016)
[11] = MRZ 0.8 mg/m^2, C1D8 (Table 43)

bevacizumab [reference compound]
Cmax of bevacizumab at Day 0 [1]: 284 µg/mL

C[C@@]12OC(=O)[C@]1([C@@H](O)[C@@H]1C=CCCC1)NC(=O)[C@@H]2CCCl [marizomib]
OS 6 mo % ([2]; All Patients): 64%
OS 9 mo % ([2]; All Patients): 64%
Median OS, methylated MGMT promoter [2, 5]: Undefined
Median PFS, methylated MGMT promoter [2, 5]: 1.7 Months
OS 6 Months, methylated [2, 5]: 83%
OS 9 Months, methylated [2, 5]: 83%
Median OS, unmethylated MGMT promoter [2, 6]: Undefined
Median PFS, unmethylated MGMT promoter [2, 6]: 1.9 Months
OS 6 Months, unmethylated [2, 6]: 65%
OS 9 Months, unmethylated [2, 6]: 65%
partial remission, patients [2, 7]: 1
stable disease, additional patients [2, 7]: 2
Best Response NE (2), patients ([2]; methylated, N = 7): 0
Best Response NE (2), patients ([2]; unknown, N = 5): 1
Best Response NE (2), patients ([2]; unmethylated, N = 18): 1
PFS 3 mo, methylated ([2]; MRZ monotherapy, N = 7): 40%
PFS 3 mo, unmethylated ([2]; MRZ monotherapy, N = 18): 20%
patients on the study for ≥4 cycles ([2]; MRZ monotherapy, N = 30): Six
progression on marizomib alone ([2]; MRZ monotherapy, N = 30): most patients demonstrated rapid progression
Best Response, Pt 0511 ([2]; MRZ monotherapy, 2nd recurrence, current cycle 10): PR (≥50% decrease compared with baseline in the sum of products of perpendicular diameters of all measurable enhancing lesions sustained for at least 4 weeks)
OS 6 mo % ([2]; Methylated MGMT Promoter): 83%
OS 9 mo % ([2]; Methylated MGMT Promoter): 83%
OS 6 mo % ([2]; Unmethylated MGMT Promoter): 65%
OS 9 mo % ([2]; Unmethylated MGMT Promoter): 65%
patients found to respond to marizomib monotherapy ([2]; ≥ stable disease and >4 cycles (Table 38)): four
complete responses (CNS-MM; 7 CNS-MM patients): two
partial responses (CNS-MM; 7 CNS-MM patients): 3
patients with at least a partial response (overall response rate) (CNS-MM; 7 CNS-MM patients): five of seven
patients with survival greater than four months (CNS-MM; 7 CNS-MM patients): four of seven
patients with at least a partial response (overall response rate) (CNS-MM; 7 CNS-MM patients, listed as MRZ): Five of 7
complete responses (CNS-MM; [8]): 2
patients with at least a partial response (overall response rate) (CNS-MM; [8]): 5/7
Neurological Assessment (CNS-MM; Case 1): Reduction of CSF plasma cells
reduction of CSF plasmacytosis (CNS-MM; Case 1): 99%
Reduction of CSF plasma cells (CNS-MM; Case 1, C2D1): (90% C2D1)
Neurological Assessment (CNS-MM; Case 2): sustained complete resolution of CSF plasmacytosis; also recorded: No CSF plasma cells detected; also recorded: Stable remission by MRI
Response (CNS-MM; Case 2, ongoing C13): CR by serology; stable remission
Neurological Assessment (CNS-MM; Case 3): undetectable CSF plasmacytosis since C3D1; also recorded: No evidence of FDG-avid lesions
IMWG Assessment Systemic Disease (CNS-MM; Case 3: MRZ 0.8 mg/m^2 + POM 4 mg + DEX 20 mg): ongoing complete response
Response (CNS-MM; Case 3, ongoing C8): CR - no evidence of active disease:
Neurological Assessment (CNS-MM; Case 4): Transient improvement through
Response (CNS-MM; Case 4, discontinued on C3): Best response PR with PD after C3
Response (CNS-MM; Case 5, discontinued C1): Pleural effusion following C1D1
Neurological Assessment (CNS-MM; Case 6): resolution of CNS disease; also recorded: Complete resolution of central
reduction in systemic paraprotein (CNS-MM; Case 6): 77%
Paraprotein after decrease (CNS-MM; Case 6, from 18 g/L): 18 to 4 g/L
IMWG Assessment Systemic Disease (CNS-MM; Case 7: MRZ 0.7 mg/m^2 + LEN 25 mg + DEX 10 mg): PD (increase in tumor of ≥25% from lowest response value)
IMWG Assessment Systemic Disease (CNS-MM; Case 7: MRZ 0.7 mg/m^2 + LEN 25 mg + DEX 10 mg, listed as MRZ): progressive disease
CL (IV infusion): high
T½ (IV infusion): short
Vd (IV infusion): large
CLobs [9]: 162 (1) mL/min/m^2
Cmax [9]: 65 ± 31 (3) ng/mL
Vss obs [9]: 7377 (1) mL/m^2
CLobs (MRZ 0.7 mg/m^2, C1D8 (Table 43)): 272 ± 166 (3) L/hr
CLobs [10]: 3822 ± 1798 (2) mL/min/m^2
Vss obs [10]: 12379 ± 8698 (2) mL/m^2
CLobs [11]: 304 ± 85.0 (3) L/hr
Vd [11]: 55.0 ± 19.7 (3) L
Vss obs (MRZ […]^2, C1D8 (17 May 2016)): 12971 ± 7600 (3) mL/m^2
CLobs (marizomib 0.7 mg/m^2 IV, C1D8, blood): 272 ± 166 (3) L/hr
CLobs (marizomib 0.8 mg/m^2 IV, C1D8, blood): 304 ± 85.0 (3) L/hr
MRZ pharmacokinetic parameters: effect of co-administration (with BEV): not affected by co-administration
distribution to brain relative to plasma Cmax ([3]; quantitative whole body autoradiography): ~30%
CNS biodistribution compared with blood levels ([3]; radiolabeled marizomib): 30%
% CT-L inhibition ([4]; PWB post-MRZ infusion (peak effect), 0.7 mg/m^2 (17 May 2016)): 100 ± 0 (3) %
% CT-L inhibition ([4]; PWB post-Marizomib infusion (peak effect), 0.7 mg/m^2): 100 ± 0 (3) %
% CT-L inhibition ([4]; PWB post-Marizomib infusion (peak effect), 0.8 mg/m^2): 100 ± 0 (3) %
sustained inhibition of the CT-L domain, pre-infusion ([4]; packed whole blood, up to two weeks after marizomib dosing): 60-80%
